Test results taken from patent publication US20070224167A1, “Novel HCV inhibitor combinations and methods” (priority 2006, published 2007).

Tests used:
HCV 1a H77 replicon = experiment: Intracellular antiviral activity in HCV replicon, genotype 1a; type: cell-based, HCV genotype 1a; conditions: Hepatitis C virus, 72 h, read-out: HCV RNA EC50
Experimental: HCV genotype 1b, BB7 replicon-containing cell line is derived from a human hepatoma cell line (Huh7). A genotype 1a (H77 isolate; GenBank Accession #AF009606) is derived from replicon-containing cell line (Huh7-1a). The cell lines are cultured at 37° C. and 5% CO2 in Dulbecco's Modified Eagle Media (D-MEM; Invitrogen #11965-084) containing 10% fetal bovine serum (FBS; HyClone #SH300070) supplemented with 1% penicillin/streptomycin (Invitrogen #15140-122), 1% non-essential amino acids (Invitrogen #11140-050), 0.66 mM HEPES buffer, pH 7.55 (Invitrogen #15630-080), and 1 mg/mL G418 (Geneticin®, Invitrogen #11811-031 or #10131-027). […]
At the end of the incubation period, the replicon-containing cells are lysed in 150 μL of lysis buffer provided in the RNeasy 96 Kit (Qiagen #74181). […] For duplexed RT-PCR quantifying both HCV RNA and 18S rRNA, 0.08 μM rRNA forward primer, 0.1 μM rRNA reverse primer, and 0.2 μM rRNA probe are added (ABI #4308329). […]
The amounts of the HCV and 18S ribosomal RNAs in each sample are estimated by comparing the Ct cycles with those in the corresponding standard curves. […] The total RNA that is used for preparing the standard curve of the rRNA is quantified by O.D.260 measurement. Compound dose response is measured in a 10-point, 3-fold serial dilution series performed in triplicates and subjected to the same corresponding RT-PCR conditions as described above. […]

[1] = system: GAPDH RNA, Huh7 BB7 replicon cells; experiment: GAPDH RNA in genotype 1b (BB7) replicon cells; type: cell-based; conditions: Homo sapiens, Huh-7, 72 h, read-out: GAPDH EC50
Experimental: HCV genotype 1b, BB7 replicon-containing cell line is derived from a human hepatoma cell line (Huh7). A genotype 1a (H77 isolate; GenBank Accession #AF009606) is derived from replicon-containing cell line (Huh7-1a). The cell lines are cultured at 37° C. and 5% CO2 in Dulbecco's Modified Eagle Media (D-MEM; Invitrogen #11965-084) containing 10% fetal bovine serum (FBS; HyClone #SH300070) supplemented with 1% penicillin/streptomycin (Invitrogen #15140-122), 1% non-essential amino acids (Invitrogen #11140-050), 0.66 mM HEPES buffer, pH 7.55 (Invitrogen #15630-080), and 1 mg/mL G418 (Geneticin®, Invitrogen #11811-031 or #10131-027). Genotype 1a and genotype 1b replicon-containing cell lines contain approximately 1000 and 2000 RNA genome equivalents per cell, respectively, when maintained in a subconfluent monolayer in the presence of 1 mg/mL G418. For compound testing, G418 is eliminated and the FBS concentration is reduced to 2%.
Genotype 1b (BB7) and 1a (H77) cells are seeded in 96-well plates at a sub-confluent density (7000 cells/well) in medium containing 2% FBS without G418. […] The amounts of HCV, rRNA and GAPDH RNAs are quantified using the TaqMan RT-PCR assay.

**Q.** With `CNC(=O)c1c(-c2ccc(F)cc2)oc2cc(N(CCO)S(C)(=O)=O)c(C3CC3)cc12` [HCV-796, 5-cyclopropyl-2-(4-fluoro-phenyl)-6-[(2-hydroxy-ethyl)-methanesulfonyl-amino]-benzofuran-3-carboxylic acid methylamide] as the compound, how does the EC50 (HCV 1a H77 replicon) read?
**A.** The EC50 was 2.5 ± 1.7 nM.

**Q.** What about the EC50 [1] of the same compound?
**A.** The EC50 was over 2430 nM.

**Q.** Which EC50 (HCV 1a H77 replicon) does the source give for `CC(C)(C)NC(=O)N[C@H](C(=O)N1C[C@H]2[C@@H]([C@H]1C(=O)NC(CC1CCC1)C(=O)C(N)=O)C2(C)C)C(C)(C)C` (stereo partly drawn) [SCH 503034, (1R,5S)—N-[3-amino-1-(cyclobutylmethyl)-2,3-dioxopropyl]-3-[2(S)-[[[(1,1-dimethylethyl)amino]carbonyl]amino]-3,3-dimethyl-1-oxobutyl]-6,6-dimethyl-3-azabicyclo[3.1.0]hexan-2(S)-carboxamide] here?
**A.** The EC50 was 188 ± 18 nM.

**Q.** And the EC50 [1]?
**A.** The EC50 was over 3200 nM.
